Earlier results, collected in patent US9408867B2, “Antifungal compositions for the treatment of skin and nails” (Veloce BioPharma, LLC, priority 2011, dated 2016).
Where two headings read alike, the source gives them in different places.

Experiments:
[1] = human skin in vitro
[2] = 50% solution of DMSO in water

ratio of penetration ([1]; dissolved in DMSO) | ratio of penetration ([1]; dissolved in alcohol) | ratio of penetration ([1]; dissolved in benzene) | ratio of penetration ([1]; dissolved in dimethylacetamide) | ratio of penetration ([1]; dissolved in dimethylformamide) | rate of penetration [2] | Structure (SMILES)
60 | 3 | 1 | 40 | 7 |  | COC1=CC(=O)C[C@@H](C)[C@]12Oc1c(Cl)c(OC)cc(OC)c1C2=O [griseofulvin]
 |  |  |  |  | markedly enhanced | C[C@]12CCC(=O)C=C1CC[C@@H]1[C@@H]2[C@@H](O)C[C@@]2(C)[C@H]1CC[C@]2(O)C(=O)CO [hydrocortisone]
